Entries after “also recorded” stand apart in the source; their conditions may differ.
Key:
[1] = target: T1, Lifeact-mCherry binding to F-actin (Oryctolagus cuniculus, UniProt P68135); test: F-actin and Lifeact-mCherry co-sedimentation assay; parameters: species or system New Zealand white rabbit (Oryctolagus cuniculus); settings: 3 μM, 2 μM Lifeact-mCherry, 30 μM F-actin
T1 construct: Actin was purified from acetone powder derived from the psoas muscle; made in house; host or cells: actin from rabbit psoas muscle; Lifeact-mCherry from E. coli, pE-SUMOpro
Method: (§1) Actin was purified from acetone powder derived from the psoas muscle of New Zealand white rabbit (Oryctolagus cuniculus). Filamentous (F)-actin was stored for up to 3 days on ice before use in binding assays. Within an hour of the binding assay, the F-actin was clarified at 100,000×g at 4° C. for 10 min prior to setting up binding assays. The L253P β-III-spectrin ABD was expressed in E. coli BL21(DE3) (Novagen). The ABD was purified and the His-SUMO tag proteolytically removed, as previously described, except size-exclusion chromatography was not performed due to the high purity of the ABD protein. Lifeact-mCherry protein was similarly prepared. A Bradford assay was performed to determine clarified F-actin and ABD protein concentrations.
(§2) F-actin and ABD binding assays were performed as previously described. In brief, binding assays used 1 μM ABD protein, 1 μM F-actin and 1-50 μM compound (as indicated) or DMSO control for a total reaction volume of 60 μL in F-buffer containing 10 mM Tris, pH 7.5, 150 mM NaCl, 0.5 mM ATP, 2 mM MgCl2, and 1 mM DTT. Following 30 min incubation at room temperature (21° C.). F-actin was pelleted using centrifugation at 100,000×g at 25° C. for 30 min. Unbound ABD in the supernatant was measured following SDS-PAGE and Coomassie blue staining in accord. In addition, control co-sedimentations assays that lacked actin were performed to test if compounds cause ABD aggregation. F-actin and Lifeact-mCherry binding assays were undertaken with 2 μM Lifeact-mCherry, 30 μM F-actin and 1-50 μM compound (as indicated) or DMSO control for a total reaction volume of 80 μL in F-buffer. For a no-actin binding control, an assay sample with no F-actin was also set up. Binding reactions were allowed to reach equilibrium at room temperature (21° C.) for 30 min and then F-actin was pelleted by centrifugation at 100,000×g at 25° C. for 30 min. The amount of unbound Lifeact-mCherry was sampled by loading 7 μL of spin supernatant on a low volume black bottom 384-well plate (Greiner). Amount of mCherry was determined by acquiring fluorescence spectrum peak intensity at ˜600 nm using a spectral unmixing plate reader (Fluorescence Innovations, Inc) equipped with a 532 nm laser (Laserglow Technologies, Ontario, Canada) for excitation, 532 nm longpass filter for emission, and PMT for emission detection. The fraction of Lifeact-mCherry bound to F-actin was determined by subtracting from one the fraction of supernatant fluorescence intensity relative to the no-actin control sample, using the following equation:
[formula] • Where Fcontrol/DMSO is the peak mCherry fluorescence of assay samples containing compound or DMSO control, and Fno-actin is the peak mCherry fluorescence of assay samples that contained no F-actin. 2.9 Trypan Blue Cell Viability Assays

HEK293-6E cells = test: Trypan blue cell viability assay; type: cell-based; settings: 3 μM, 3 hrs
Method: HEK293-6E cell viability was measured using trypan blue (0.03%) staining and a Countess Automated Cell counter (Invitrogen). Non-transfected HEK293-6E cells were spun at 100×g for 5 min at 21° C., and resuspended in 10 mL of PBS. The centrifugation and resuspension were repeated twice more. Final cell concentration was 1×10^6 cells/mL. Cells were incubated with 2% DMSO, or 3-50 μM compound (as indicated) for 3 hrs at room temperature (21° C.). After addition of 100 μL of 0.06% trypan blue solution in PBS, 10 μL was loaded on a slide and injected into the cell counter, and cell viability was measured.

[2] = target: T2, ternary complex consisting of GFP-ABD-L253P, Lifeact-mCherry, and actin (Homo sapiens, UniProt O15020, L253P); test: Primary live-cell time-resolved FRET assay (GFP-ABD-L253P plus Lifeact-mCherry); type: cell-based; settings: 12-point concentration response 0.01 to 30 μM, 1536-well plates, average of 3 plates; read-out: EC50 of FRET reduction
T2 construct: L252P β-III-spectrin (human) ABD residues 1-284; expressed in transfected cells; host or cells: HEK293-6E, pTT5 vector, transient
T2 sequence (O15020 1-284 L253P, one chain of several): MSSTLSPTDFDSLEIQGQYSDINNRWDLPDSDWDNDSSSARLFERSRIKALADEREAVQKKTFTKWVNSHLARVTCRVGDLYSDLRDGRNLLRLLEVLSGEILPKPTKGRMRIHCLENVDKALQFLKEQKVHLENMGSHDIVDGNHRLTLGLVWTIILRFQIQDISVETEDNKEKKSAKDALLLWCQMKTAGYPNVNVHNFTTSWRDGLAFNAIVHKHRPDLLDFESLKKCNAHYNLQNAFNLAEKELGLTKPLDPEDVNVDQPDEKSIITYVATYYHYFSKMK

[3] = target: T3, ABD-L253P (L253P β-III-spectrin ABD) binding to F-actin (Homo sapiens, UniProt O15020, L253P); test: F-actin and ABD co-sedimentation assay; settings: 3 μM, 1 μM ABD, 1 μM F-actin
T3 construct: His-SUMO (cleaved yes); made in house; host or cells: E. coli BL21(DE3), pE-SUMOpro; actin from rabbit psoas muscle
T3 sequence (O15020 1-284 L253P): as the sequence (O15020 1-284 L253P, one chain of several) above
Method: as §1
as §2, with “F-actin and Lifeact-mCherry binding assays were undertaken with 2 μM Lifeact-mCherry, 30 μM F-actin and 1-50 μM compound (as indicated) or DMSO control for a total reaction volume of 80 μL in F-buffer. For a no-actin binding control, an assay sample with no F-actin was also set up. Binding reactions were allowed to reach equilibrium at room temperature (21° C.) for 30 min and then F-actin was pelleted by centrifugation at 100,000×g at 25° C. for 30 min. The amount of unbound Lifeact-mCherry was sampled by loading 7 μL of spin supernatant on a low volume black bottom 384-well plate (Greiner).” left out, “equation: […]” for “equation:”

actin = actin sedimentation assay; read-out: previously reported affinity value; cited from earlier work

Q: Which results are given for `CO[C@H]1C[C@H](CC[C@H](C)[C@H](O)[C@H](C)[C@H]2OC(=O)/C=C/C(C)=C/C[C@H](O)C[C@@H]3C=CC[C@@H](C[C@H](OC)[C@@H](C)[C@@H](O)C[C@@H](O)[C@H](C)[C@@H]([C@@H](C)[C@@H](O)[C@@H](C)CC[C@H]4C[C@H](OC)C[C@H](C)O4)OC(=O)/C=C/C(C)=C/C[C@H](O)C[C@@H]4C=CC[C@@H](C[C@H](OC)[C@@H](C)[C@@H](O)C[C@@H](O)[C@@H]2C)O4)O3)O[C@@H](C)C1` [swinholide A]?
A: effect on Lifeact-mCherry binding with actin [1]: did reduce; also recorded: reduce Lifeact-mCherry binding with actin; effect on HEK293-6E cell viability (HEK293-6E cells): did not significantly alter and not; EC50 [2]: 264 nM; effect on ABD-L253P binding to actin [3]: did reduce; also recorded: ablation; effect on ABD-L253P binding to actin ([3]; listed as swiholide A): reduce ABD-L253P binding to actin; Kd (actin): 50 nM

Reference: patent US11656221B2, “Methods to identify modulators of actin-binding proteins” (Regents of the University of Minnesota, priority 2019, dated 2023)
